Experimental data published in patent US8470765B2, “Polypeptides and antibacterial or antiseptic use of same” (AnGes MG, Inc., priority 2009, dated 2013).
Converted amounts (≈) assume the structure as drawn. Where two headings read alike, the source gives them in different places. No end group written: not given here.

Experiments:
[1] = test system: Pseudomonas aeruginosa ATCC 27853; experiment: microbe, parasite or virus in culture; assay type: cell-based; details: for MIC: Pseudomonas aeruginosa, ATCC27853, read-out: MIC Pseudomonas aeruginosa
Summary of the method: (§1)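 Visual MIC by microdilution in MHB; ~10^5 CFU/mL final; peptide solution prepared at 128 μg/mL; 37° C for 16–24 h or a strain-suited time.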

[2] = test system: Klebsiella pneumoniae JCM 1662; experiment: microbe, parasite or virus in culture; assay type: cell-based; details: for MIC: Klebsiella pneumoniae, JCM1662
Summary of the method: as §1

[3] = test system: Staphylococcus aureus ATCC29213; experiment: microbe, parasite or virus in culture; assay type: cell-based; details: for MIC: Staphylococcus aureus, ATCC29213, read-out: MIC Staphylococcus aureus
Summary of the method: as §1

[4] = test system: Escherichia coli ATCC 25922; experiment: microbe, parasite or virus in culture; assay type: cell-based; details: for MIC: Escherichia coli, ATCC25922, read-out: MIC Escherichia coli
Summary of the method: as §1

[5] = test system: Enterobacter aerogenes JCM 1235; experiment: microbe, parasite or virus in culture; assay type: cell-based; details: for MIC: Klebsiella aerogenes, JCM1235
Summary of the method: as §1

[6] = test system: Staphylococcus epidermidis JCM 2414; experiment: microbe, parasite or virus in culture; assay type: cell-based; details: for MIC: Staphylococcus epidermidis, JCM2414, read-out: MIC Staphylococcus epidermidis
Summary of the method: as §1

[7] = test system: methicillin-sensitive Staphylococcus (MSSA) MSSA(ii); experiment: organism not typed; details: for MIC: read-out: MIC MSSA(ii)
Protocol: (§2) Bacteria (Escherichia coli ATCC 25922, Pseudomonas aeruginosa ATCC 27853, Staphylococcus aureus ATCC29213, Klebsiella pneumoniae JCM 1662, Enterobacter cloacae JCM 1232, Enterobacter aerogenes JCM 1235 and Staphylococcus epidermidis JCM 2414) were inoculated to Mueller-Hinton broth: MHB or LB medium, and cultured at a temperature and period suited for each strain. From the thus obtained colonies, each strain was inoculated to a fresh liquid medium and cultured for 16 to 20 hours. Then an aliquot having a volume (10 to 50 appropriate to each strain was inoculated to a fresh liquid medium and cultured for 4 to 6 hours, followed by the measurement of the absorbance at 600 nm. After comparing the turbidity with McFarland #0.5, the resultant was diluted with a medium. Each strain was added to about 10^5 CFU/mL (final concentration).
(§3) Further, the antibacterial activities against the clinical strains collected and isolated from infected patients were also examined. The tests were carried out for two methicillin-resistant Staphylococcus (MRSA) (MRSA (i) and (ii)), two methicillin-sensitive Staphylococcus (MSSA) (MSSA (i) and (ii)), five Pseudomonas aeruginosa, Pseudomonas aeruginosa 1, Pseudomonas aeruginosa 6, Pseudomonas aeruginosa 8. Pseudomonas aeruginosa 9 and Pseudomonas aeruginosa 12, totally 9 clinical strains. The MRSA and MSSA clinical strains were tested by the same method as Staphylococcus aureus ATCC29213, and Pseudomonas clinical strains were tested by the same method as Pseudomonas aeruginosa ATCC 27853.
(§4) Each of the peptide solutions to be tested was diluted with MHB to obtain a solution of 128 μg/mL. This solution was serially diluted with the medium to prepare peptide-containing media having concentrations of 128, 64, 32, 16, 8.0, 4.0 and 2.0 μg/mL respectively. […] By dilution with sterilized purified water to 1.0 mg/mL, positive control-containing media having concentrations of 16, 8, 4, 2, 1.0, 0.25, 0.12 and 0.06 μg/mL, respectively for TOB; 0.5, 0.12 and 0.06 μg/mL, respectively, for OX; and 16, 8, 4, 2, 1.0, 0.25, 0.12, 0.06, 0.06, 0.03 and 0.008 μg/mL, respectively, for MEPM, were prepared.
(§5) To a 96-well microtiter plate, 0.1 mL of the inoculation solution and 0.1 mL of the peptide- or positive control-containing medium having the respective concentration were added, and cultured at 37° C. for 16 to 24 hours (or a time period suited for the growth of the respective strain). The well not containing the sample was used as a negative control. After the culturing, the growth was visually observed, and the minimum concentration at which the growth was inhibited was defined as the minimum growth inhibition concentration (MIC).
(§6) The medium used in this test for bacteria was Mueller-Hinton broth. Independent experiments were carried out twice or more for each strain.

[8] = test system: methicillin-resistant Staphylococcus (MRSA) MRSA(ii); experiment: organism not typed; details: for MIC: read-out: MIC MRSA(ii)
Protocol: as §2, §3, §4, §5, §6

[9] = test system: methicillin-resistant Staphylococcus (MRSA) MRSA(i); experiment: organism not typed; details: for MIC: read-out: MIC MRSA(i)
Protocol: as §2, §3, §4, §5, §6

[10] = test system: Pseudomonas aeruginosa 8 (clinical strain)
Protocol: as §2, §3, §4, §5, §6

[11] = test system: methicillin-sensitive Staphylococcus (MSSA) MSSA(i); experiment: organism not typed; details: Table 4; clinical strain; first/second value where not identical
Protocol: as §2, §3, §4, §5, §6

[12] = test system: Streptococcus pyogenes JCM5674
[13] = test system: Salmonella typhimurium JCM1652
[14] = Table 4, two tests, first/second value where not identical
[15] = methicillin-sensitive Staphylococcus (ii)
[16] = Table 4, clinical strain, first/second value where not identical
[17] = methicillin-resistant Staphylococcus (i)
[18] = methicillin-resistant Staphylococcus (ii)

Compound | MIC Pseudomonas aeruginosa ([1]; ATCC 27853) [µg/mL] | MIC Klebsiella pneumoniae ([2]; JCM 1662) [µg/mL] | MIC Staphylococcus aureus ([3]; ATCC29213) [µg/mL] | MIC Escherichia coli ([4]; ATCC 25922) [µg/mL] | MIC Pseudomonas aeruginosa 8 ([10]; 8 (clinical strain)) [µg/mL] | MIC Candida krusei (Candida krusei NBRC1395; NBRC1395) [µg/mL] | MIC MSSA(ii) [7, 15] [µg/mL] | MIC MSSA(i) [11] | MIC MRSA(i) [9, 17] [µg/mL] | MIC Streptococcus pyogenes [12] [µg/mL] | MIC Enterobacter aerogenes [5, 14] | MIC Staphylococcus epidermidis [6, 14] | MIC Pseudomonas aeruginosa [1, 14] | MIC Salmonella Typhimurium ([13]; JCM1652) [µg/mL] | MIC Escherichia coli [4, 14] | MIC MRSA(ii) [8, 18] [µg/mL] | also measured
C[C@@H](O)[C@H]1C(=O)N2C(C(=O)O)=C(S[C@@H]3CN[C@H](C(=O)N(C)C)C3)[C@H](C)[C@H]12 [meropenem, reference compound] | – | – | – | – | – | – | – | – | – | – | – | – | – | – | – | – | MIC [1, 14]: 0.25 to 1 µg/mL (≈ 0.652 to 2.61 µM); MIC [2, 14]: < 4000 µg/mL; MIC [3, 14]: 0.03 to 0.12 µg/mL (≈ 0.0782 to 0.313 µM); MIC [4, 14]: 0.008 to 0.06 µg/mL (≈ 0.0209 to 0.156 µM); MIC [5, 14]: < 4000 µg/mL; MIC [6, 14]: 0.03 to 0.12 µg/mL (≈ 0.0782 to 0.313 µM); MIC [7]: 4 to 8 µg/mL (≈ 10.4 to 20.9 µM); MIC [8]: 8 to 16 µg/mL (≈ 20.9 to 41.7 µM); MIC [9]: < 4000 µg/mL
NC[C@H]1O[C@H](O[C@H]2[C@H](O)[C@@H](O[C@H]3O[C@H](CO)[C@@H](O)[C@H](N)[C@H]3O)[C@H](N)C[C@@H]2N)[C@H](N)C[C@@H]1O [tobramycin, reference compound] | – | – | – | – | – | – | – | – | – | – | – | – | – | – | – | – | MIC [1, 14]: 0.25 to 1 µg/mL (≈ 0.535 to 2.14 µM); MIC [2, 14]: < 4000 µg/mL; MIC [3, 14]: 0.12 to 1 µg/mL (≈ 0.257 to 2.14 µM); MIC [4, 14]: 0.25 to 1 µg/mL (≈ 0.535 to 2.14 µM); MIC [5, 14]: < 4000 µg/mL; MIC [6, 14]: 0.12 to 1 µg/mL (≈ 0.257 to 2.14 µM); MIC [7]: 4 µg/mL (≈ 8.56 µM); MIC [8]: > 16000 µg/mL; MIC [9]: > 16000 µg/mL
GRLKRMGERLKRKIQKWIRW-NH2 [SRP-15] | 16 | 16 | 16 | 16 | 16 | 16 | 16 | 16/32 | 16 | 16 | – | – | – | – | – | – | MIC Enterobacter aerogenes ([5]; JCM 1235): 16 µg/mL; MIC Staphylococcus epidermidis ([6]; JCM 2414): 8 µg/mL; MIC MRSA(ii) [8, 16]: 16/32; MIC Salmonella Typhimurium [13, 14]: 8/4
GRLKRMGKRLKRKIQKWARW-NH2 [SRP-14] | 16 | – | 16 | 16 | 16 | 32 | – | 16/32 | – | 16 | 16/32 | 8/16 | – | – | – | – | MIC Klebsiella pneumoniae [2, 14]: 16/128; MIC MSSA(ii) [7, 16]: 16/32; MIC MRSA(ii) [8, 16]: 16/32; MIC MRSA(i) [9, 16]: 16/32; MIC Salmonella Typhimurium [13, 14]: 4/8
IFLHRLKRMRKRLKRKLRLW-OH [SRP-7] | – | – | 32 | 32 | 32 | – | – | – | – | 32 | 16/64 | – | 8/16 | 4 | – | – | MIC Klebsiella pneumoniae [2, 14]: 16/64; MIC Staphylococcus epidermidis ([6]; JCM 2414): 8 µg/mL; MIC Candida krusei (Candida krusei NBRC1395; [14]): 64/32
KLIFLHRLKRELRKRLKRKLR-NH2 [SRP-13] | 16 | 32 | 32 | – | 16 | 32 | 16 | 16/32 | 64 | 32 | 16/64 | 4/8 | – | 4 | 16/32 | 64 | –
KLIFLRELRRLRKRLKRKLR-NH2 [SRP-16] | 16 | 64 | 16 | – | 16 | 32 | 16 | 16/32 | 32 | 32 | 16/32 | 8/16 | – | 8 | 16/32 | 64 | –
KNLRRIIRKIIHIIKKYG-NH2 [Ovispirin-1, reference compound] | – | – | 16 | – | – | 16 | 16 | 16/32 | 32 | 32 | 16/32 | 8/16 | 16/32 | 16 | 8/16 | 32 | MIC Klebsiella pneumoniae [2, 14]: 8/16; MIC Pseudomonas aeruginosa 8 [10, 16]: 32/64
LIFLHRLKRMRKRLKRKLRL-NH2 [SRP-12] | – | 128 | 16 | 32 | – | – | 16 | 16 µg/mL | 32 | – | 32/64 | 4/8 | 16/32 | – | – | – | MIC Pseudomonas aeruginosa 8 [10, 16]: 32/64; MIC MRSA(ii) [8, 16]: 32/64
RLKRMRKRLKRKLRLW-NH2 [SRP-17] | – | 32 | – | – | – | 32 | – | – | – | 128 | – | 4/8 | 32/64 | 16 | 16/32 | – | MIC Staphylococcus aureus [3, 14]: 16/32; MIC Enterobacter aerogenes ([5]; JCM 1235): 128 µg/mL; MIC Pseudomonas aeruginosa 8 [10, 16]: 64/128
RLKRMRKRLKRKLRLWHRKRYK-NH2 [SRP-8] | 16 | 32 | 16 | – | 16 | 32 | 32 | 32/64 | 64 | 64 | – | 8/16 | – | 64 | 16/32 | 64 | MIC Enterobacter aerogenes ([5]; JCM 1235): 64 µg/mL
